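In this assay, cells in 96-well plates receive the compound at five concentrations for 48 hours. Endpoints are linearly interpolated between the surrounding concentrations. Here, GI50 denotes the concentration required for 50% inhibition of growth. TGI: concentration producing complete growth inhibition.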
How the values were obtained:
Assay in all cases: NCI tumour cell line growth inhibition, 48 h
[1] = test system: MDA-MB-231 breast
[2] = test system: SK-OV-3 ovarian
[3] = test system: A549 NSCLC
[4] = test system: NCI/ADR-RES ovarian
[5] = test system: PC-3 prostate
[6] = test system: 786-0 renal
[7] = test system: MOLT-4 leukemia
[8] = test system: CAKI-1 renal
[9] = test system: T-47D breast
[10] = test system: MDA-MB-435
[11] = test system: EKVX NSCLC
[12] = test system: A498 renal
[13] = test system: NCI-H460 lung
[14] = test system: SNB-19 CNS
[15] = test system: HCT-15 colon
[16] = test system: SF-295 CNS
[17] = test system: NCI-H226 lung
[18] = test system: UACC-257 melanoma
[19] = test system: CCRF-CEM leukemia
[20] = test system: SK-MEL-2 melanoma
[21] = test system: OVCAR-8 ovarian
[22] = test system: RPMI-8226 leukemia
[23] = test system: UO-31 renal
[24] = test system: HCT-116 colon
[25] = test system: NCI-H522 lung
[26] = test system: TK-10 renal
[27] = test system: NCI-H23 lung
[28] = test system: SN12C renal
[29] = test system: SF-268 CNS
[30] = test system: COLO 205 colon
[31] = test system: KM12 colon
[32] = test system: HS 578T breast
[33] = test system: U251 CNS
[34] = test system: MCF7 breast
[35] = test system: SR leukemia
[36] = test system: SK-MEL-5 melanoma
[37] = test system: SW-620 colon
[38] = test system: OVCAR-3 ovarian
[39] = test system: ACHN renal
[40] = test system: M14 melanoma
[41] = test system: HCC-2998 colon
[42] = test system: LOX IMVI melanoma
[43] = test system: IGROV1 ovarian
[44] = test system: OVCAR-5 ovarian
[45] = test system: K-562 leukemia
[46] = test system: UACC-62 melanoma
[47] = test system: BT-549 breast
[48] = test system: RXF 393 renal

Oc1ccc(O)c(-c2cn3ccsc3n2)c1
GI50 [1]: 11.7 µM
TGI [1]: 33.7 µM
GI50 [2]: 19.1 µM
TGI [2]: 51.6 µM
GI50 [3]: 22.9 µM
TGI [3]: 48.9 µM
GI50 [4]: 12.9 µM
TGI [4]: 25.5 µM
GI50 [5]: 10.1 µM
TGI [5]: 21.7 µM
GI50 [6]: 4.04 µM
TGI [6]: 15 µM
GI50 [7]: 2.55 µM
TGI [7]: 5.42 µM
GI50 [8]: 2.18 µM
TGI [8]: 4.99 µM
GI50 [9]: 19.7 µM
TGI [9]: 40.6 µM
GI50 [10]: 11.2 µM
TGI [10]: 23.7 µM
GI50 [11]: 18.4 µM
TGI [11]: 35.8 µM
GI50 [12]: 47 µM
TGI [12]: 84.5 µM
GI50 [13]: 13.6 µM
TGI [13]: 31.4 µM
GI50 [14]: 20.9 µM
TGI [14]: 49.7 µM
GI50 [15]: 12.3 µM
TGI [15]: 24.7 µM
GI50 [16]: 13.6 µM
TGI [16]: 51.2 µM
GI50 [17]: 9.11 µM
TGI [17]: 33.6 µM
GI50 [18]: 24.3 µM
TGI [18]: 50.3 µM
GI50 [19]: 1.59 µM
TGI [19]: 4.23 µM
GI50 [20]: 50.4 µM
TGI [20]: > 100 µM
GI50 [21]: 19.6 µM
TGI [21]: 67.1 µM
GI50 [22]: 1.73 µM
TGI [22]: 7.82 µM
GI50 [23]: 12.6 µM
TGI [23]: 25.2 µM
GI50 [24]: 5.68 µM
TGI [24]: 18.3 µM
GI50 [25]: 4.29 µM
TGI [25]: > 100 µM
GI50 [26]: 21.3 µM
TGI [26]: 47.9 µM
GI50 [27]: 16.9 µM
TGI [27]: 64.3 µM
GI50 [28]: 12.2 µM
TGI [28]: 26.9 µM
GI50 [29]: 14.4 µM
TGI [29]: > 100 µM
GI50 [30]: 21.4 µM
TGI [30]: 48.2 µM
GI50 [31]: 12.5 µM
TGI [31]: 27.7 µM
GI50 [32]: 30.4 µM
TGI [32]: 68.7 µM
GI50 [33]: 15.8 µM
TGI [33]: 33.7 µM
GI50 [34]: 5.5 µM
TGI [34]: 27.2 µM
GI50 [35]: 1.48 µM
TGI [35]: 4.43 µM
GI50 [36]: 12.7 µM
TGI [36]: 25.2 µM
GI50 [37]: 7.1 µM
TGI [37]: 19.1 µM
GI50 [38]: 7.4 µM
TGI [38]: 20.9 µM
GI50 [39]: 12.7 µM
TGI [39]: 25.3 µM
GI50 [40]: 15.2 µM
TGI [40]: 28.5 µM
GI50 [41]: 16.5 µM
TGI [41]: 31.1 µM
GI50 [42]: 5.68 µM
TGI [42]: 21.3 µM
GI50 [43]: 15.4 µM
TGI [43]: 28.7 µM
GI50 [44]: 12 µM
TGI [44]: 26.5 µM
GI50 [45]: 6.93 µM
TGI [45]: 26.1 µM
GI50 [46]: 10.8 µM
TGI [46]: 29.9 µM
GI50 [47]: 5.61 µM
TGI [47]: 21 µM
GI50 [48]: 14.5 µM
TGI [48]: 29.6 µM

Reference: PubChem BioAssay (NCI)
